This series is described as follows: from Savola, J.; Ruskoaho, H.; Salonen, J.; Puurunen, J.; Karjalainen, A.; Kurkela, K.; Karki, N. (1988). Cardiovascular and sedative alpha-adrenoceptor effects of detomidine-like arylalkylimidazoles and …. Particulars: pH 7.4.

SMILES strings stand for the structures.

One may read the logD as lipophilicity at a set pH, counting ionised and neutral species. Read a low logD as lower lipophilicity.

In the case of `Cc1cccc(Cc2c[nH]cn2)c1C`, the logD was determined as 2.5.
To `Cc1ccc(Cc2c[nH]cn2)cc1C` belongs 2.54; to `Cc1ccccc1Cc1c[nH]cn1`, 2.13.
To `Cc1cccc(Cc2c[nH]cn2)c1` belongs 2.21; to `Cc1ccc(C)c(Cc2c[nH]cn2)c1`, 2.54; to `Cc1cc(C)cc(Cc2c[nH]cn2)c1`, 2.34.
To `Cc1cccc(C)c1Cc1cnc[nH]1` belongs 2.54; to `Cc1cccc(C)c1/C=C/c1c[nH]cn1`, 3.35.
As for `Cc1cccc(C)c1CCn1ccnc1`, the pH-dependent lipophilicity (logD) stood at 2.51.
To `Cc1cccc(C)c1CCCCc1c[nH]cn1` belongs 3.3.
To `Cc1cccc(C)c1CCc1c[nH]cn1` belongs 2.73; to `Cc1ccc(Cc2c[nH]cn2)c(C)c1`, 2.52.
To `Cc1cccc(C)c1-c1c[nH]cn1` belongs 2.38.
In the case of `Cc1cccc(C)c1Cc1ccccn1`, the logD came out at 3.48.
`Cc1cccc(C)c1CCCc1c[nH]cn1` yielded a pH-dependent lipophilicity (logD) of 2.87.
Turning to `Cc1cccc(C)c1CCc1ncc[nH]1`, the logD was found to be 2.2.

The record behind these values is the SangsterLogP compilation.
